In US10647680B2, “Urea compound, preparation method therefor and medical use thereof” (Ancureall Pharmaceutical (Shanghai) Co., Ltd., priority 2016, dated 2020):
Several values for one entry are separate records, joined by “and”; a condition that tells them apart may be missing. Equal values may be shown once. Where a name gives a salt, the structure may show the parent alone. Read-outs that look alike come from different tables or passages of the source.

Test: In vivo pharmacokinetics in rats
Set-up: species or system rat
Description: The pharmacokinetic experiments in rats were performed using compound 77 of the present invention as a representative example.
Procedure: 6 SD male rats (˜200 g, purchased from Shanghai Sippr-BK Experimental Animal Co., Ltd) were selected and divided into two groups according to the experimental design table (Table 9). Animals were administered intravenously and orally. Dosing was performed once on the treating day and the doses were 5 mg/kg and 10 mg/kg, respectively.
Drug formulation method: the required amount of test sample was added to a certain volume of 40% (HP-β-CD) aqueous solution, and then stirred under heating (temperature 25-45° C.) until dissolution, then the same volume of deionized water was added and adjusted to pH 5 with NaOH, to prepare 20% HP-β-CD clear aqueous solution.
For the intravenous administration group, blood samples were taken from jugular veins before administration and 2 min, 5 min, 15 min, 30 min, 1 h, 2 h, 4 h, 6 h, 8 h, and 24 h after administration; for the oral administration group, blood samples were taken from jugular veins before administration and 5 min, 30 min, 1 h, 2 h, 4 h, 6 h, 8 h, 10 h, and 24 h. The collected blood samples were centrifuged to separate plasma within 30 min (centrifugation condition: 8000 rpm, 6 minutes, 2-8° C.). The plasma samples were stored at −80° C. in a freezer before assay. The plasma samples were used for LC-MS/MS method development and sample testing.
The pharmacokinetic parameters (AUC(0-t), AUC(0-∞), T1/2, MRT(0-∞), Cmax, Tmax and F) were calculated using WinNonlin Professional v5.2 (Pharsight USA). In addition, the bioavailability (F) was calculated by the following formula.

[1] = SD rats, intravenously, 5 mg/kg, individual animals 101-103, listed as methanesulfonate of compound 77, 5 mg/kg
[2] = SD rats, orally, 10 mg/kg, individual animals 201-203, listed as methanesulfonate of compound 77, 10 mg/kg
[3] = male, SD, rat, plasma, iv, 5 mg/kg, intravenously, Mean
[4] = male, SD, rat, plasma, iv, 5 mg/kg, intravenously, individual animals 101-103
[5] = male, SD, rat, plasma, po, 10 mg/kg, orally, Mean
[6] = male, SD, rat, plasma, po, 10 mg/kg, orally, individual animals 201-203

For `COCCOc1ccc2c(c1)ncn2-c1ccc(NC(=O)Nc2cc(C(C)(C)C)n[nH]2)cc1` [Compound 77 Mesylate, 1-(5-tert-butyl-2H-pyrazol-3-yl)-3-{4-[5-(2-methoxyl-ethoxyl)-benzimidazol-1-yl]-phenyl}-urea], which “AUC(0-t)” value [1] is on record?
The value was 14458 ng·h/mL and 13825 ng·h/mL.

What about the “AUC(0-∞)” value [1] of the same molecule?
The value was 14501 ng·h/mL and 13969 ng·h/mL.

And the CL [1]?
The CL was 5.75 mL/min/kg and 5.97 mL/min/kg.

And the Cmax [1]?
Its Cmax is 20795 ng/mL and 17312 ng/mL.

What about the “MRT(0-t)” value [1] of the same molecule?
The value was 3.86 h and 4.21 h.

What about the Vss [1] of the same molecule?
Its Vss is 1.355 L/kg and 1.599 L/kg.

And the Vz [1]?
The Vz was 1.473 L/kg and 2.01 L/kg.

What about the t½ [1] of the same molecule?
Its t½ is 2.96 h and 3.89 h.

And the “AUC(0-t)” value [2]?
Its value is 7249 ng·h/mL and 6927 ng·h/mL.

What about the “AUC(0-∞)” value [2] of the same molecule?
Its value is 7294 ng·h/mL and 7067 ng·h/mL.

And the Cmax [2]?
The Cmax was 1082 ng/mL and 1095 ng/mL.

And the “MRT(0-t)” value [2]?
Its value is 5.07 h and 5.45 h.

What about the t½ [2] of the same molecule?
Its t½ is 3.36 h and 4.53 h.

And the AUC(0-t) (male, SD, rat, plasma, iv, 5 mg/kg, administered intravenously, 5 mg/kg, read-out: AUC(0-t))?
The AUC(0-t) was 14400 ng·h/mL.

And the Cmax (male, SD, rat, plasma, iv, 5 mg/kg, administered intravenously, 5 mg/kg, read-out: Cmax)?
Its Cmax is 18700 ng/mL.

And the AUC(0-t) (male, SD, rat, plasma, iv, 5 mg/kg, intravenously, 5 mg/kg, Mean, read-out: AUC(0-t))?
Its AUC(0-t) is 14400 ng·h/mL.

What about the Cmax (male, SD, rat, plasma, iv, 5 mg/kg, intravenously, 5 mg/kg, Mean, read-out: Cmax) of the same molecule?
Its Cmax is 18700 ng/mL.

And the MRT inf (male, SD, rat, plasma, iv, 5 mg/kg, intravenously, 5 mg/kg, Mean, read-out: MRT (0-∞))?
The MRT inf was 4.27 h.

And the MRT last (male, SD, rat, plasma, iv, 5 mg/kg, intravenously, 5 mg/kg, Mean, read-out: MRT(0-t))?
The MRT last was 4.03 h.

And the Vd (male, SD, rat, plasma, iv, 5 mg/kg, intravenously, 5 mg/kg, Mean, read-out: Vss)?
The Vd was 1.47 L/kg.

What about the Vd (male, SD, rat, plasma, iv, 5 mg/kg, intravenously, 5 mg/kg, Mean, read-out: Vz) of the same molecule?
The Vd was 1.8 L/kg.

And the half-life (male, SD, rat, plasma, iv, 5 mg/kg, intravenously, 5 mg/kg, Mean, read-out: t½ (converted))?
Its half-life is 3.62 h.

What about the AUC(0-t) (male, SD, rat, plasma, iv, 5 mg/kg, intravenously, 5 mg/kg, individual animals 101-103, read-out: AUC(0-t)) of the same molecule?
The AUC(0-t) was 14900 ng·h/mL.

What about the Cmax (male, SD, rat, plasma, iv, 5 mg/kg, intravenously, 5 mg/kg, individual animals 101-103, read-out: Cmax) of the same molecule?
Its Cmax is 18000 ng/mL.

And the MRT inf (male, SD, rat, plasma, iv, 5 mg/kg, intravenously, 5 mg/kg, individual animals 101-103, read-out: MRT (0-∞))?
Its MRT inf is 4.42 h.

What about the MRT last (male, SD, rat, plasma, iv, 5 mg/kg, intravenously, 5 mg/kg, individual animals 101-103, read-out: MRT(0-t)) of the same molecule?
Its MRT last is 4.04 h.

What about the Vd (male, SD, rat, plasma, iv, 5 mg/kg, intravenously, 5 mg/kg, individual animals 101-103, read-out: Vss) of the same molecule?
Its Vd is 1.46 L/kg.

What about the Vd (male, SD, rat, plasma, iv, 5 mg/kg, intravenously, 5 mg/kg, individual animals 101-103, read-out: Vz) of the same molecule?
Its Vd is 1.91 L/kg.

What about the half-life (male, SD, rat, plasma, iv, 5 mg/kg, intravenously, 5 mg/kg, individual animals 101-103, read-out: t½ (converted)) of the same molecule?
The half-life was 4.01 h.

And the AUC(0-inf) [3]?
The AUC(0-inf) was 14500 ng·h/mL.

And the clearance [3]?
The clearance was 5.73 mL/min/kg.

And the AUC(0-inf) [4]?
The AUC(0-inf) was 15200 ng·h/mL.

What about the clearance [4] of the same molecule?
Its clearance is 5.5 mL/min/kg.

And the AUC(0-t) (male, SD, rat, plasma, po, 10 mg/kg, administered orally, 10 mg/kg, read-out: AUC(0-t))?
Its AUC(0-t) is 6770 ng·h/mL.

What about the Cmax (male, SD, rat, plasma, po, 10 mg/kg, administered orally, 10 mg/kg, read-out: Cmax) of the same molecule?
The Cmax was 1050 ng/mL.

What about the AUC(0-t) (male, SD, rat, plasma, po, 10 mg/kg, orally, 10 mg/kg, Mean, read-out: AUC(0-t)) of the same molecule?
The AUC(0-t) was 6770 ng·h/mL.

What about the Cmax (male, SD, rat, plasma, po, 10 mg/kg, orally, 10 mg/kg, Mean, read-out: Cmax) of the same molecule?
Its Cmax is 1050 ng/mL.

What about the MRT last (male, SD, rat, plasma, po, 10 mg/kg, orally, 10 mg/kg, Mean, read-out: MRT(0-t)) of the same molecule?
Its MRT last is 5.38 h.

What about the half-life (male, SD, rat, plasma, po, 10 mg/kg, orally, 10 mg/kg, Mean, read-out: t½ (converted)) of the same molecule?
Its half-life is 3.86 h.

What about the AUC(0-t) (male, SD, rat, plasma, po, 10 mg/kg, orally, 10 mg/kg, individual animals 201-203, read-out: AUC(0-t)) of the same molecule?
Its AUC(0-t) is 6140 ng·h/mL.

What about the Cmax (male, SD, rat, plasma, po, 10 mg/kg, orally, 10 mg/kg, individual animals 201-203, read-out: Cmax) of the same molecule?
The Cmax was 977 ng/mL.

And the MRT last (male, SD, rat, plasma, po, 10 mg/kg, orally, 10 mg/kg, individual animals 201-203, read-out: MRT(0-t))?
Its MRT last is 5.61 h.

And the half-life (male, SD, rat, plasma, po, 10 mg/kg, orally, 10 mg/kg, individual animals 201-203, read-out: t½ (converted))?
Its half-life is 3.7 h.

What about the AUC(0-inf) [5] of the same molecule?
Its AUC(0-inf) is 6860 ng·h/mL.

And the MRT [5]?
Its MRT is 5.68 h.

And the AUC(0-inf) [6]?
The AUC(0-inf) was 6210 ng·h/mL.

And the MRT [6]?
The MRT was 5.9 h.

What about the Tmax (male, rat, plasma, po, SD rats, orally, 10 mg/kg, Mean) of the same molecule?
The Tmax was 2 h.

What about the bioavailability (male, rat, plasma, SD rats, oral 10 mg/kg versus intravenous 5 mg/kg) of the same molecule?
Its bioavailability is 23.5%.
